IC50 data for 47 compounds are collected here from patent publication US9062015B2, “Inhibitors of sphingosine kinase” (Merck Patent GmbH, priority 2009, dated 2015).

The test deals with SphK1 (Homo sapiens, UniProt Q9NYA1). Nature of the test: SphK1 kinase assay, 384-well flashplate (biochemical assay). The note with it: IC50 ranges; 5 nM modified SphK1, 800 nM omega-biotinyl-D-erythro-sphingosine, 1 μM ATP, 30° C., 120 min; read-out: SphK1 Inhibition IC50. The method, then:
Tests for the Inhibition of the SphK1 Activity
The kinase assay is carried out as a 384-well flashplate assay.
5 nM modified SphK1, 800 nM omega-biotinyl-D-erythro-sphingosine and 1 μM ATP (with 0.3 μCi of ^33P-ATP/well) are incubated in a total volume of 50 μl (25 mM HEPES, 5 mM MgCl2, 1 mM dithiothreitol, 0.01% of Brij35, 0.1% of BSA (fatty acid-free), pH 7.4) without or with test substance (5-10 concentrations) at 30° C. for 120 min. The reaction is terminated using 25 μl of 200 mM EDTA solution, filtered off with suction at room temperature after 30 min, and the cavities are washed 3 times with 100 μl of 0.9% NaCl solution. The non-specific proportion of the kinase reaction (blank) is determined using 0.5 mM NaCl. Radioactivity is measured in topcount. IC50 values are calculated using RS1.

Chain of SphK1 (Q9NYA1 9-364 limits assumed): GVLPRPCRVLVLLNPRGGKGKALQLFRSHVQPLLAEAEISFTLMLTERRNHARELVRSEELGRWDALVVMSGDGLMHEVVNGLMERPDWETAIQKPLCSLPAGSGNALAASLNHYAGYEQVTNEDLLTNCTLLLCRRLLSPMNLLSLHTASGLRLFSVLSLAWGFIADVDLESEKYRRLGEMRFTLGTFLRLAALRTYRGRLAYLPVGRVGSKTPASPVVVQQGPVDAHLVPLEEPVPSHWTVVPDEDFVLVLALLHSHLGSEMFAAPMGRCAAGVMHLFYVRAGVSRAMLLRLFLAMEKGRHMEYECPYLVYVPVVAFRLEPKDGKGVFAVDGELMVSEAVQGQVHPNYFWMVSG

Regarding `Cc1ccc(-c2ccc3c(c2)C(C)(C)CCC3(C)C)cc1N1CCNCC1`, the IC50 (commonly the concentration needed to halve the response being measured) is above 1000 nM. The result for `CC1(C)CCC(C)(C)c2cc(-c3cc(N4CCNCC4)ccn3)ccc21` reads 100 to 1000 nM; that for `COCCOc1ccc(-c2ccc3c(c2)C(C)(C)CCC3(C)C)nc1N1CCNCC1`, above 1000 nM.

For the compound `CC1(C)CCC(C)(C)c2cc(-c3ncnc(N4CCC(N)CC4)n3)ccc21`, the IC50 was below 100 nM. With `CC1(C)CCC(C)(C)c2cc(-c3ccnc(N4CCNCC4)c3)ccc21` the figure was 100 to 1000 nM; with `CC1(C)CCC(C)(C)c2cc(-c3nccc(N4CCN(CCCO)CC4)n3)ccc21`, 100 to 1000 nM. The result for `CC1(C)CCC(C)(C)c2cc(-c3cc(N4CCN(CCCCO)CC4)ccn3)ccc21` reads 100 to 1000 nM; that for `CC1(C)CCC(C)(C)c2cc(-c3cccc(N4CCN(CCCCO)CC4)c3)ccc21`, 100 to 1000 nM. Regarding `CC1(C)CCC(C)(C)c2cc(-c3ccnc(N4CCN(CCCCO)CC4)c3)ccc21`, the IC50 lay in the range of 100 to 1000 nM. Take `CC1(C)CCC(C)(C)c2cc(-c3cccc(N4CCN(CCCCO)CC4)n3)ccc21`: the IC50 is below 100 nM. In the case of `COCCOc1ccc(-c2ccc3c(c2)C(C)(C)CCC3(C)C)nc1N1CCN(CCCCCO)CC1`, the IC50 was above 1000 nM. With `CC1(C)CCC(C)(C)c2cc(-c3cccc(N4CCN(CCCCCO)CC4)c3)ccc21` the figure was below 100 nM; with `CC1(C)CCC(C)(C)c2cc(-c3ncnc(N4CCN(CCCCCO)CC4)n3)ccc21`, below 100 nM; with `CC1(C)CCC(C)(C)c2cc(-c3cccc(N4CCN(CCCCCO)CC4)n3)ccc21`, below 100 nM.

As for `CC1(C)CCC(C)(C)c2cc(-c3cccc(N4CCN(CCCCCOC(=O)CN)CC4)c3)ccc21`, the IC50 is 100 to 1000 nM.

Turning to `CC1(C)CCC(C)(C)c2cc(-c3cccc(N4CCN(C[C@@H](N)CO)CC4)n3)ccc21`, the IC50 is above 1000 nM.

As to `C[C@H]1CN(c2cccc(-c3ccc4c(c3)C(C)(C)CCC4(C)C)c2)CCN1`, the IC50 fell in the range of 100 to 1000 nM.

`CC1(C)CCC(C)(C)c2cc(-c3cccc(N4CCNCC4)c3)ccc21` [1-[3-(5,5,8,8-Tetramethyl-5,6,7,8-tetrahydronaphthalen-2-yl)phenyl]-piperazine]: the IC50 was 100 to 1000 nM.

As for `CC1(C)CC(C)(C)c2cc(-c3cccc(N4CCNCC4)n3)ccc21` [1-[6-(1,1,3,3-Tetramethylindan-5-yl)pyridin-2-yl]piperazine], the IC50 lay in the range of 100 to 1000 nM. The result for `CC1(C)CCc2cc(-c3cccc(N4CCNCC4)n3)ccc21` [1-[6-(1,1-Dimethylindan-5-yl)pyridin-2-yl]piperazine] reads above 1000 nM. The result for `CC1(C)CCC(C)(C)c2cc(-c3cccc(N4CCNCC4)n3)ccc21` [1-[6-(5,5,8,8-Tetramethyl-5,6,7,8-tetrahydronaphthalen-2-yl)pyridin-2-yl]piperazine] reads 100 to 1000 nM; that for `CC1(C)CCCc2cc(-c3cccc(N4CCNCC4)n3)ccc21` [1-[6-(5,5-Dimethyl-5,6,7,8-tetrahydronaphthalen-2-yl)pyridin-2-yl]-piperazine], above 1000 nM; that for `CC1(C)CCCc2ccc(-c3cccc(N4CCNCC4)n3)cc21` [1-[6-(8,8-Dimethyl-5,6,7,8-tetrahydronaphthalen-2-yl)pyridin-2-yl]-piperazine], above 1000 nM. With `CC1(C)CCC(C)(C)c2cc(-c3cccc(N4CCC(N5CCC(N)C5)CC4)n3)ccc21` (centres unmarked) [1-[6′-(5,5,8,8-Tetramethyl-5,6,7,8-tetrahydronaphthalen-2-yl)-3,4,5,6-tetrahydro-2H-1,2′-bipyridinyl-4-yl]pyrrolidin-3-ylamine] the figure was below 100 nM; with `CC1(C)CCC(C)(C)c2cc(-c3ncnc(N4CCC(N5CCC(N)C5)CC4)n3)ccc21` (centres unmarked) [1-{1-[4-(5,5,8,8-Tetramethyl-5,6,7,8-tetrahydronaphthalen-2-yl)-1,3,5-triazin-2-yl]piperidin-4-yl}pyrrolidin-3-ylamine], 100 to 1000 nM.

Regarding `CC1(C)CCC(C)(C)c2cc(-c3ncnc(N4CCC(N5CCCC(O)C5)CC4)n3)ccc21` (centres unmarked) [1′-[4-(5,5,8,8-Tetramethyl-5,6,7,8-tetrahydronaphthalen-2-yl)-1,3,5-triazin-2-yl]-1,4′-bipiperidinyl-3-ol], the IC50 lay within 100 to 1000 nM. As to `CC1(C)CCCc2cc(-c3ncnc(N4CCNCC4)n3)ccc21` [2-(5,5-Dimethyl-5,6,7,8-tetrahydronaphthalen-2-yl)-4-piperazin-1-yl-1,3,5-triazine], the IC50 is above 1000 nM. With `CC1(C)CCCc2ccc(-c3ncnc(N4CCNCC4)n3)cc21` [2-(8,8-Dimethyl-5,6,7,8-tetrahydronaphthalen-2-yl)-4-piperazin-1-yl-1,3,5-triazine] the figure was above 1000 nM; with `CC1(C)CCC(C)(C)c2cc(-c3ncnc(N4CCNCC4)n3)ccc21` [2-Piperazin-1-yl-4-(5,5,8,8-tetramethyl-5,6,7,8-tetrahydronaphthalen-2-yl)-1,3,5-triazine], below 100 nM.

As to `CC1(C)CCC(C)(C)c2cc(-c3ccnc(N4CCNCC4)n3)ccc21` [2-Piperazin-1-yl-4-(5,5,8,8-tetramethyl-5,6,7,8-tetrahydronaphthalen-2-yl)pyrimidine], the IC50 fell in the range of 100 to 1000 nM. With `CC1(C)CCC(C)(C)c2cc(-c3cccc(N4CCN(CCCO)CC4)n3)ccc21` [3-{4-[6-(5,5,8,8-Tetramethyl-5,6,7,8-tetrahydronaphthalen-2-yl)-pyridin-2-yl]piperazin-1-yl}propan-1-ol] the figure was 100 to 1000 nM; with `CC1(C)CCCc2cc(-c3cccc(N4CCN(CCCO)CC4)n3)ccc21` [3-{4-[6-(5,5-Dimethyl-5,6,7,8-tetrahydronaphthalen-2-yl)pyridin-2-yl]-piperazin-1-yl}propan-1-ol], above 1000 nM; with `CC1(C)CCC(C)(C)c2cc(-c3nccc(N4CCNCC4)n3)ccc21` [4-Piperazin-1-yl-2-(5,5,8,8-tetramethyl-5,6,7,8-tetrahydronaphthalen-2-yl)pyrimidine], 100 to 1000 nM. For the compound `CC1(C)CCC(C)(C)c2cc(-c3cccc(N4CCC(NCCCCO)CC4)n3)ccc21` [4-[6′-(5,5,8,8-Tetramethyl-5,6,7,8-tetrahydronaphthalen-2-yl)-3,4,5,6-tetrahydro-2H-1,2′-bipyridinyl-4-ylamino]butan-1-ol], the IC50 was below 100 nM. The result for `CC1(C)CCC(C)(C)c2cc(-c3ncnc(N4CCC(NCCCCO)CC4)n3)ccc21` [4-{1-[4-(5,5,8,8-Tetramethyl-5,6,7,8-tetrahydronaphthalen-2-yl)-1,3,5-triazin-2-yl]piperidin-4-ylamino}butan-1-ol] reads below 100 nM; that for `CC1(C)CCC(C)(C)c2cc(-c3ncnc(N4CCN(CCCCO)CC4)n3)ccc21` [4-{4-[4-(5,5,8,8-Tetramethyl-5,6,7,8-tetrahydronaphthalen-2-yl)-1,3,5-triazin-2-yl]piperazin-1-yl}butan-1-ol], below 100 nM.

On to `CC1(C)CC(C)(C)c2cc(-c3cccc(N4CCN(CCCCO)CC4)n3)ccc21` [4-{4-[6-(1,1,3,3-Tetramethylindan-5-yl)pyridin-2-yl]piperazin-1-yl}-butan-1-ol], for which the IC50 fell in the range of 100 to 1000 nM. Regarding `CC1(C)CCc2cc(-c3cccc(N4CCN(CCCCO)CC4)n3)ccc21` [4-{4-[6-(1,1-Dimethylindan-5-yl)pyridin-2-yl]piperazin-1-yl}butan-1-ol], the IC50 is above 1000 nM. In the case of `CC1(C)CCCc2cc(-c3cccc(N4CCN(CCCCO)CC4)n3)ccc21` [4-{4-[6-(5,5-Dimethyl-5,6,7,8-tetrahydronaphthalen-2-yl)pyridin-2-yl]-piperazin-1-yl}butan-1-ol], the IC50 was above 1000 nM. As for `CC1(C)CCCc2ccc(-c3cccc(N4CCN(CCCCO)CC4)n3)cc21` [4-{4-[6-(8,8-Dimethyl-5,6,7,8-tetrahydronaphthalen-2-yl)pyridin-2-yl]-piperazin-1-yl}butan-1-ol], the IC50 is above 1000 nM. Regarding `CC1(C)CCC(C)(C)c2cc(-c3cccc(N4CCC(NCCCCCO)CC4)n3)ccc21` [5-[6′-(5,5,8,8-Tetramethyl-5,6,7,8-tetrahydronaphthalen-2-yl)-3,4,5,6-tetrahydro-2H-1,2′-bipyridinyl-4-ylamino]pentan-1-ol], the IC50 is 100 to 1000 nM. The result for `CC1(C)CC(C)(C)c2cc(-c3cccc(N4CCN(CCCCCO)CC4)n3)ccc21` [5-{4-[6-(1,1,3,3-Tetramethylindan-5-yl)pyridin-2-yl]piperazin-1-yl}-pentan-1-ol] reads 100 to 1000 nM. The result for `CC1(C)CCc2cc(-c3cccc(N4CCN(CCCCCO)CC4)n3)ccc21` [5-{4-[6-(1,1-Dimethylindan-5-yl)pyridin-2-yl]piperazin-1-yl}pentan-1-ol] reads above 1000 nM; that for `CC1(C)CCCc2cc(-c3cccc(N4CCN(CCCCCO)CC4)n3)ccc21` [5-{4-[6-(5,5-Dimethyl-5,6,7,8-tetrahydronaphthalen-2-yl)pyridin-2-yl]-piperazin-1-yl}pentan-1-ol], 100 to 1000 nM. The result for `CC1(C)CCCc2ccc(-c3cccc(N4CCN(CCCCCO)CC4)n3)cc21` [5-{4-[6-(8,8-Dimethyl-5,6,7,8-tetrahydronaphthalen-2-yl)pyridin-2-yl]-piperazin-1-yl}pentan-1-ol] reads above 1000 nM; that for `CC1(C)CCC(C)(C)c2cc(-c3cccc(C4CCNCC4)n3)ccc21` [6-(5,5,8,8-Tetramethyl-5,6,7,8-tetrahydronaphthalen-2-yl)-1′,2′,3′,4′,5′,6′-hexahydro-2,4′-bipyridinyl], 100 to 1000 nM. For the compound `CC1(C)CCC(C)(C)c2cc(-c3cncc(N4CCNCC4)n3)ccc21` [6′-(5,5,8,8-Tetramethyl-5,6,7,8-tetrahydronaphthalen-2-yl)-3,4,5,6-tetrahydro-2H-1,2′-bipyrazinyl], the IC50 is above 1000 nM.
